Here are results for 4 compounds from US7390816B2, “Methods for treating urinary incontinence in patients suffering from memory disorders” (Bridge Pharma, Inc., priority 2005, dated 2008).

Where two headings read alike, the source gives them in different places.

In series [1] the test system is carbachol-induced contractions of urinary bladder smooth muscle strips. In words: Antimuscarinic activity on bladder smooth muscle strips (carbachol-induced contractions). The format is cell-based, guinea pigs. The settings on record: Cavia porcellus, read-out: KB for inhibition of carbachol-induced contractions. The source says: Conclusions: Trospium had slightly higher affinity for human muscarinic receptors than the reference compounds. The therapeutic activity of anti-muscarinic drugs in overactive human bladders are usually considered to be related to affinity for M-2/M-3 receptors, while the side effect xerostomia (dry mouth) is due mainly, but not exclusively, to inhibition of M-1 receptors in salivary glands. • 2. Functional Characterization of Antimuscarinic and Antispasmodic Activities on Bladder Smooth Muscle Strips. Methods: Experiments have now been performed using methods described by Kachur et al, J Pharmacol Exp Ther. 1988, 247: 867-872 and Noronha-Blob et al. J Pharmacol Exp Ther 256: 562-567. Strips of tissue (approximately 10 mm long and 1.5 mm wide) were removed from the urinary bladder of male guinea pigs. The tissues were suspended in an oxygenated buffer of the following composition, in mM: NaCl 133; KCl 4.7; CaCl2 2.5; MgSO4 0.6; NaH2PO4.1.3; NaHCO3 16.3; and glucose 7.7. The smooth muscle strips were maintained at or about 37.5° C. in tissue chambers and allowed to equilibrate with the bathing solution for one hour before proceeding with the experiment. […]

Another series has as its system memory. In words: Side effects concerning memory functions, T-shaped maze in conscious rats. It counts as in vivo. The settings on record: for Effect on memory: naive rats. As for the experimental part: . Side effects concerning memory functions. Methods:
Conscious rats are used. The animals are placed at the base of a T-shaped maze with a reward placed in one of the arms of the maze. After the animals have learned where the reward is located, said reward is removed and it is investigated how long time it takes in the maze before the rats no longer selected the arm of the maze where the reward had been located. Experiments were also performed in rats that had been pretreated with phenylephrine to increase the permeability of the blood-brain barrier. Control groups of animals were treated with placebo (vehicle only) or with oxybutynin.

Setting [2] is: male guinea pig urinary bladder strips.

Consider `Cc1ccc(O)c([C@H](CCN(C(C)C)C(C)C)c2ccccc2)c1` [Tolterodine], for which the Kb in series [1] was 1.5 to 5.5 nM.

`O=C(OC1CC2CCC(C1)[N+]21CCCC1)C(O)(c1ccccc1)c1ccccc1` (centres unmarked) [Trospium, azoniaspiro (3[…]-benziloyl-oxynortro-pane-8,1′-pyrrolidine) chloride]: in series [1], the Kb fell in the range of 1.5 to 5.5 nM. In addition, the Effect on memory entry with memory (T-shaped maze) was “does not influence the memory”. In addition, the “Effect on memory after phenylephrine pretreatment” value with memory (rats pretreated with phenylephrine to increase blood-brain barrier permeability) is listed as “did not uncover any impairment of memory”. Also, the “Aggravation of existing memory impairment” value in the series on memory (rats with memory disorder induced by oxybutynin, T-shaped maze) is recorded as “no further aggravation of memory impairment”.

In the case of `CCN(CC)CC#CCOC(=O)C(O)(c1ccccc1)C1CCCCC1` (centres unmarked) [Oxybutynin], the Kb in series [1] (setting [2]) fell in the range of 1.5 to 5.5 nM. For the same compound, the Effect on memory result with memory (T-shaped maze) was “memory is impaired”.

In the case of `CC(CC(c1ccccc1)c1ccccc1)NC(C)(C)C` (centres unmarked) [terodiline], the Kb in series [1] (setting [2]) was 1.5 to 5.5 nM.
